Experimental data: patent US10485235B2, “Aryloxypyrimidinyl ethers as herbicides” (FMC Corporation, priority 2015, dated 2019)

Experiments:
Type in all cases: in vivo
[1] = tested on: foxtail, giant (giant foxtail, Setaria faberii); assay: Test A preemergence, giant foxtail; conditions: Preemergence, 0 to 100 scale (0 no effect, 100 complete control)
Summary of the method: (§1)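 For postemergence, one- to two-leaf plants 2–10 cm tall were sprayed; for preemergence, seeded loam–sand soil got a directed spray. Both used compound in a non-phytotoxic, surfactant-containing solvent, with visual injury ratings (0–100) after roughly 10 greenhouse days.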

[2] = tested on: barnyardgrass (Echinochloa crus-galli); assay: Test A postemergence, barnyardgrass; conditions: postemergence, 0 to 100 scale, 0 is no effect, 100 is complete control, approximately 10 days
Summary of the method: as §1

[3] = tested on: blackgrass (Alopecurus myosuroides); assay: Test A postemergence, blackgrass; conditions: postemergence, 0 to 100 scale, 0 is no effect, 100 is complete control, approximately 10 days
Summary of the method: as §1

[4] = tested on: galium (catchweed bedstraw, Galium aparine); assay: Test A postemergence, galium; conditions: postemergence, 0 to 100 scale, 0 is no effect, 100 is complete control, approximately 10 days
Summary of the method: as §1

[5] = tested on: ducksalad (Heteranthera limosa); assay: Test B flooded paddy test, ducksalad; conditions: 250 g ai/ha, Flood; visual rating after 13 to 15 days; scale 0 to 100, 0 is no effect, 100 is complete control
Summary of the method: (§2)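 Plants grown to the 2-leaf stage; pots flooded to 3 cm above soil and compounds applied directly into the paddy water, depth held throughout. After 13 to 15 days in the greenhouse, injury was rated visually against untreated controls on a 0–100 scale (0 no effect, 100 complete control).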

[6] = tested on: ryegrass, Italian (Italian ryegrass, Lolium multiflorum); assay: Test A postemergence, Italian ryegrass; conditions: postemergence, 0 to 100 scale, 0 is no effect, 100 is complete control, approximately 10 days
Summary of the method: as §1

[7] = tested on: ragweed (common ragweed, Ambrosia elatior); assay: Test A preemergence, ragweed; conditions: Preemergence, 0 to 100 scale (0 no effect, 100 complete control)
Summary of the method: as §1

[8] = tested on: wheat (Triticum aestivum); assay: Test A postemergence, wheat; conditions: postemergence, 0 to 100 scale, 0 is no effect, 100 is complete control, approximately 10 days
Summary of the method: as §1

kochia (Kochia scoparia) [9] = assay: Test A preemergence, kochia; conditions: Preemergence, 0 to 100 scale (0 no effect, 100 complete control)
Summary of the method: as §1

[10] = tested on: pigweed (Amaranthus retroflexus); assay: Test A preemergence, pigweed; conditions: Preemergence, 0 to 100 scale (0 no effect, 100 complete control)
Summary of the method: as §1

[11] = tested on: barnyardgrass (Echinochloa crus-galli); assay: Test B flooded paddy test, barnyardgrass; conditions: 250 g ai/ha, Flood; visual rating after 13 to 15 days; scale 0 to 100, 0 is no effect, 100 is complete control
Summary of the method: as §2

kochia (Kochia scoparia) [12] = assay: Test A postemergence, kochia; conditions: postemergence, 0 to 100 scale, 0 is no effect, 100 is complete control, approximately 10 days
Summary of the method: as §1

corn (Zea mays) = assay: Test A postemergence, corn; conditions: postemergence, 0 to 100 scale, 0 is no effect, 100 is complete control, approximately 10 days
Summary of the method: as §1

[13] = tested on: ryegrass, Italian (Italian ryegrass, Lolium multiflorum); assay: Test A preemergence, Italian ryegrass; conditions: Preemergence, 0 to 100 scale (0 no effect, 100 complete control)
Summary of the method: as §1

[14] = tested on: ragweed (common ragweed, Ambrosia elatior); assay: Test A postemergence, ragweed; conditions: postemergence, 0 to 100 scale, 0 is no effect, 100 is complete control, approximately 10 days
Summary of the method: as §1

rice (Oryza sativa) = assay: Test B flooded paddy test, rice; conditions: 250 g ai/ha, Flood; visual rating after 13 to 15 days; scale 0 to 100, 0 is no effect, 100 is complete control
Summary of the method: as §2

[15] = tested on: foxtail, giant (giant foxtail, Setaria faberii); assay: Test A postemergence, giant foxtail; conditions: postemergence, 0 to 100 scale, 0 is no effect, 100 is complete control, approximately 10 days
Summary of the method: as §1

[16] = tested on: sedge, umbrella (small-flower umbrella sedge, Cyperus difformis); assay: Test B flooded paddy test, umbrella sedge; conditions: 250 g ai/ha, Flood; visual rating after 13 to 15 days; scale 0 to 100, 0 is no effect, 100 is complete control
Summary of the method: as §2

[17] = tested on: barnyardgrass (Echinochloa crus-galli); assay: Test A preemergence, barnyardgrass; conditions: Preemergence, 0 to 100 scale (0 no effect, 100 complete control)
Summary of the method: as §1

[18] = tested on: pigweed (Amaranthus retroflexus); assay: Test A postemergence, pigweed; conditions: postemergence, 0 to 100 scale, 0 is no effect, 100 is complete control, approximately 10 days
Summary of the method: as §1

In the case of `FC(F)C(F)(F)C(F)(F)C(F)(F)COc1c(Br)cccc1Oc1ncc(Cl)cn1` [Compound 53], the “Plant response rating, Foxtail, Giant” value ([1]; 125 g ai/ha) is reported as 100, the “Plant response rating, Foxtail, Giant” value ([1]; 500 g ai/ha) is reported as 100 and the “Plant response rating, Barnyardgrass” value ([2]; 125 g ai/ha) is reported as 40. The “Plant response rating, Barnyardgrass” value ([2]; 500 g ai/ha) was 100, the “Plant response rating, Blackgrass” value ([3]; 125 g ai/ha) was 30 and the “Plant response rating, Blackgrass” value ([3]; 500 g ai/ha) was 60. The “Plant response rating, Galium” value ([4]; 125 g ai/ha) was 90, the “Plant response rating, Galium” value ([4]; 500 g ai/ha) was 100 and the “Plant response rating, Ducksalad” value [5] was 90. For the same compound, the “Plant response rating, Ryegrass, Italian” value ([6]; 125 g ai/ha) was 20, the “Plant response rating, Ryegrass, Italian” value ([6]; 500 g ai/ha) was 70 and the “Plant response rating, Ragweed” value ([7]; 125 g ai/ha) was 0. For the same compound, the “Plant response rating, Ragweed” value ([7]; 500 g ai/ha) was 20, the “Plant response rating, Wheat” value ([8]; 125 g ai/ha) was 10 and the “Plant response rating, Wheat” value ([8]; 500 g ai/ha) was 30. The “Plant response rating, Kochia” value (kochia (Kochia scoparia) [9]; 125 g ai/ha) was 20, the “Plant response rating, Kochia” value (kochia (Kochia scoparia) [9]; 500 g ai/ha) was 90 and the “Plant response rating, Pigweed” value ([10]; 125 g ai/ha) was 80. For the same compound, the “Plant response rating, Pigweed” value ([10]; 500 g ai/ha) was 100, the “Plant response rating, Barnyardgrass” value [11] was 0 and the “Plant response rating, Kochia” value (kochia (Kochia scoparia) [12]; 125 g ai/ha) was 100. For the same compound, the “Plant response rating, Kochia” value (kochia (Kochia scoparia) [12]; 500 g ai/ha) was 100, the “Plant response rating, Corn” value (corn (Zea mays); 125 g ai/ha) was 10 and the “Plant response rating, Corn” value (corn (Zea mays); 500 g ai/ha) was 30. For the same compound, the “Plant response rating, Ryegrass, Italian” value ([13]; 125 g ai/ha) was 20, the “Plant response rating, Ryegrass, Italian” value ([13]; 500 g ai/ha) was 80 and the “Plant response rating, Ragweed” value ([14]; 125 g ai/ha) was 40. For the same compound, the “Plant response rating, Ragweed” value ([14]; 500 g ai/ha) was 80, the “Plant response rating, Rice” value (rice (Oryza sativa)) was 15 and the “Plant response rating, Foxtail, Giant” value ([15]; 125 g ai/ha) was 30. The “Plant response rating, Foxtail, Giant” value ([15]; 500 g ai/ha) was 100, the “Plant response rating, Sedge, Umbrella” value [16] was 80 and the “Plant response rating, Barnyardgrass” value ([17]; 125 g ai/ha) was 60. For the same compound, the “Plant response rating, Barnyardgrass” value ([17]; 500 g ai/ha) was 100, the “Plant response rating, Pigweed” value ([18]; 125 g ai/ha) was 100 and the “Plant response rating, Pigweed” value ([18]; 500 g ai/ha) was 100.
For `FC(F)(F)CCCOc1c(Oc2ncc(Cl)cn2)cccc1C(F)(F)F` [Compound 54], the “Plant response rating, Foxtail, Giant” value ([1]; 31 g ai/ha) was 50, the “Plant response rating, Foxtail, Giant” value ([1]; 125 g ai/ha) was 100 and the “Plant response rating, Barnyardgrass” value ([2]; 31 g ai/ha) was 10. For the same compound, the “Plant response rating, Barnyardgrass” value ([2]; 125 g ai/ha) was 20, the “Plant response rating, Blackgrass” value ([3]; 31 g ai/ha) was 0 and the “Plant response rating, Blackgrass” value ([3]; 125 g ai/ha) was 10. The “Plant response rating, Galium” value ([4]; 31 g ai/ha) was 20, the “Plant response rating, Galium” value ([4]; 125 g ai/ha) was 50 and the “Plant response rating, Ducksalad” value [5] was 100. The “Plant response rating, Ryegrass, Italian” value ([6]; 31 g ai/ha) was 0, the “Plant response rating, Ryegrass, Italian” value ([6]; 125 g ai/ha) was 20 and the “Plant response rating, Ragweed” value ([7]; 31 g ai/ha) was 0. For the same compound, the “Plant response rating, Ragweed” value ([7]; 125 g ai/ha) was 0, the “Plant response rating, Wheat” value ([8]; 31 g ai/ha) was 0 and the “Plant response rating, Wheat” value ([8]; 125 g ai/ha) was 10. For the same compound, the “Plant response rating, Kochia” value (kochia (Kochia scoparia) [9]; 31 g ai/ha) was 0, the “Plant response rating, Kochia” value (kochia (Kochia scoparia) [9]; 125 g ai/ha) was 30 and the “Plant response rating, Pigweed” value ([10]; 31 g ai/ha) was 20. For the same compound, the “Plant response rating, Pigweed” value ([10]; 125 g ai/ha) was 100, the “Plant response rating, Barnyardgrass” value [11] was 40 and the “Plant response rating, Kochia” value (kochia (Kochia scoparia) [12]; 31 g ai/ha) was 10. The “Plant response rating, Kochia” value (kochia (Kochia scoparia) [12]; 125 g ai/ha) was 50, the “Plant response rating, Corn” value (corn (Zea mays); 31 g ai/ha) was 10 and the “Plant response rating, Corn” value (corn (Zea mays); 125 g ai/ha) was 20. The “Plant response rating, Ryegrass, Italian” value ([13]; 31 g ai/ha) was 10, the “Plant response rating, Ryegrass, Italian” value ([13]; 125 g ai/ha) was 80 and the “Plant response rating, Ragweed” value ([14]; 31 g ai/ha) was 0. The “Plant response rating, Ragweed” value ([14]; 125 g ai/ha) was 10, the “Plant response rating, Rice” value (rice (Oryza sativa)) was 40 and the “Plant response rating, Foxtail, Giant” value ([15]; 31 g ai/ha) was 10. The “Plant response rating, Foxtail, Giant” value ([15]; 125 g ai/ha) was 70, the “Plant response rating, Sedge, Umbrella” value [16] was 100 and the “Plant response rating, Barnyardgrass” value ([17]; 31 g ai/ha) was 20. For the same compound, the “Plant response rating, Barnyardgrass” value ([17]; 125 g ai/ha) was 90, the “Plant response rating, Pigweed” value ([18]; 31 g ai/ha) was 20 and the “Plant response rating, Pigweed” value ([18]; 125 g ai/ha) was 80.
